According to publication PMC7238036, “An Interspecies Molecular and Functional Study of Organic Cation Transporters at the Blood-Brain Barrier: From Rodents to Humans” (Pharmaceutics, 2020):

Legend:
BBB = conditions: cited from earlier work
[1] = tested on: primary human brain microvascular endothelial cells (BMVECs)
Procedure: BMVECs were obtained from isolated human brain microvessels and cultured in petri dishes in the presence of puromycin (P0), to avoid contamination from other cell types. BMVECs were later used in astrocyte-conditioned culture media for protein extraction, or for the establishment of a human BBB model to conduct permeability assays.
After BMVECs amplification, cells were seeded on inserts (Transwell, Corning, ThermoFisher, Les Ulis, France). […] Permeability studies using radiolabeled [^3H]-L-Phenylalanine (~4 nM) or [^3H]-MPP^+ (~6 nM) were performed on BMVECs once the establishment of a good BBB model was verified.

OCT1 and/or OCT2 = tested on: OCT1 and/or OCT2; set-up: method as in PMID 20477935; conditions: cited from earlier work

Procedure for luminal BBB: Transport of [^3H]-MPP^+ at the luminal BBB was measured by in situ brain perfusion in mice and rats [22, 23, 24]. […] With this method, the vascular composition of the brain is totally substituted by an artificial fluid, whose constitution can be modified. Mice and rats were anesthetized with ketamine-xylazine mixture 140–8 mg kg^−1 and 80-10 mg kg^−1, respectively. A catheter was inserted into the right carotid artery after ligation of the appropriate vessels. Just before perfusion, the heart was cut. Perfusion started immediately at a constant flow rate of 2.5 mL min^−1, and 10 mL min^−1, in mouse and rat, respectively.
The fluid pH (pHe) was checked and adjusted with a digital pH-meter (± 0.05 pH-units) immediately before perfusion. […] The perfusion was terminated by decapitating the animal after 120 s. […]
The apparent tissue distribution volume (Vtissue, µL g^−1) was calculated as (Equation (2)): (2) Vtissue=Vtissue/Cperf where Xtissue (dpm g^−1) is the calculated brain amount of [^3H]-MPP^+ and Cperf (dpm µL^−1), its concentration in the perfusion fluid (Equation (3)): (3) Xtissue=Xtot−VvCperf where Xtot (dpm g^−1) is the total quantity of [^3H]-MPP^+ measured in the sample tissue.
The initial transport rate, also called brain clearance, expressed as a Kin (µL s^−1 g^−1), was calculated from (Equation (4)): (4) Kin=Vtissue/T where T is the perfusion time (s).

C[n+]1ccc(-c2ccccc2)cc1 [[^3H]-MPP^+, 1-methyl-4-phenylpyridinium]
modification of [3H]-MPP+ brain transport (BBB; FVB (wild-type, Oct1/2−/−, Oct3−/−) and Swiss mice (+/- TEA)): no modification | differences in basal [3H]-MPP+ brain transport between the selected mouse strains (luminal BBB; 2-month old mice, six strains): not evidenced

N[C@@H](Cc1c[nH]c2ccccc12)C(=O)O [tryptophan]
effect of inhibitor on [3H]-L-phenylalanine uptake, apical to basolateral (SLC7A5) ([1]; tryptophan 5 mM, [3H]-L-phenylalanine ~4 nM, n = 3, p < 0.05): significant decrease

CN1CC=C(c2ccccc2)CC1 [MPTP, 1-methyl-4-phenyl-1,2,3,6-tetrahydropyridine]
share of MPTP brain uptake accounted for by OCT1 and/or OCT2 (OCT1 and/or OCT2): more than 90%

CC[N+](CC)(CC)CC [TEA, Tetraethylammonium]
modification of [14C]-TEA brain transport (BBB; FVB Oct1−/− mice): no modification | effect of co-perfused inhibitor on [3H]-MPP+ brain extraction/clearance (luminal BBB; TEA 30 mM co-perfusion, all rat and mouse strains tested): remained unaltered | effect of inhibitor on [3H]-MPP+ uptake, apical to basolateral ([1]; TEA 2 mM, [3H]-MPP+ ~6 nM, OCT1-3/MATE function): did not produce any significant decrease
